From PubChem BioAssay AID330 (DTP/NCI, 2004)
“And” between values parts separate entries of the source, which are not always exact repeats. Equal values may be shown once. Toxic doses and inconclusive results are not listed. How the source made its calls: active means survival T/C of 150% or more; inactive means T/C below 125% in these data. Peptide text beside a SMILES is read from it. * marks the point of attachment. Cbz = O=C(OCc1ccccc1)*

Test system: P388 leukemia ip, CD2F1 mice, survival T/C
Test: NCI In Vivo Anticancer Drug Screen. Data for tumor model P388 Leukemia (intraperitoneal) in CD2F1 (CDF1) mice
Details: endpoint: median survival time, higher = longer survival
Procedure, shortened: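 Mice carrying the transplanted tumor received test compound or vehicle. Survival was recorded in each group, and the value is the treated-group measurement divided by that of the vehicle-treated control group.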

[1] = dose: 100.0 mg/kg/injection, schedule: Q04DX003 (ip), vehicle: saline with Tween-80
[2] = dose: 200.0 mg/kg/injection, schedule: Q04DX003 (ip), vehicle: saline with Tween-80
[3] = dose: 50.0 mg/kg/injection, schedule: Q01DX009 (ip), vehicle: saline with Tween-80
[4] = dose: 50.0 mg/kg/injection, schedule: Q01DX005 (ip), vehicle: saline with Tween-80
[5] = dose: 50.0 mg/kg/injection, schedule: Q04DX003 (ip), vehicle: saline with Tween-80
[6] = dose: 100.0 mg/kg/injection, schedule: Q01DX009 (ip), vehicle: saline with Tween-80
[7] = dose: 200.0 mg/kg/injection, schedule: Q01DX009 (ip), vehicle: saline with Tween-80
[8] = dose: 60.0 mg/kg/injection, schedule: Q01DX005 (ip), vehicle: saline with Tween-80
[9] = dose: 120.0 mg/kg/injection, schedule: Q01DX005 (ip), vehicle: saline with Tween-80
[10] = dose: 100.0 mg/kg/injection, schedule: Q04DX002 (ip), vehicle: saline with Tween-80
[11] = dose: 240.0 mg/kg/injection, schedule: Q01DX005 (ip), vehicle: saline with Tween-80

Measured: T/C

COC(=O)[C@@H]1[C@@H]2O[C@@H]2[C@H]2O[C@H]2[C@H]1C(=O)O
inactive: dose: 6.25 mg/kg/injection, schedule: Q01DX001 (ip), vehicle: Klucel (hydroxypropylcellulose) (HPC) 113 % of control | dose: 12.5 mg/kg/injection, schedule: Q01DX001 (ip), vehicle: Klucel (hydroxypropylcellulose) (HPC) 103 % of control | dose: 25.0 mg/kg/injection, schedule: Q01DX001 (ip), vehicle: Klucel (hydroxypropylcellulose) (HPC) 100 % of control | dose: 50.0 mg/kg/injection, schedule: Q01DX001 (ip), vehicle: Klucel (hydroxypropylcellulose) (HPC) 99 % of control

C1=CC2C3CCC(C3)C2C1 (stereo unspecified)
inactive: [1] 113 % of control | [2] 100 % of control | dose: 400.0 mg/kg/injection, schedule: Q04DX003 (ip), vehicle: saline with Tween-80 104 % of control

COc1ccc(C(=O)N2CC(OC(C)=O)=CC2=O)cc1
inactive: dose: 50.0 mg/kg/injection, schedule: Q01DX009 (ip), vehicle: Klucel (hydroxypropylcellulose) (HPC) 107 % of control | dose: 100.0 mg/kg/injection, schedule: Q01DX009 (ip), vehicle: Klucel (hydroxypropylcellulose) (HPC) 110 % of control | dose: 200.0 mg/kg/injection, schedule: Q01DX009 (ip), vehicle: Klucel (hydroxypropylcellulose) (HPC) 106 % of control

C[CH2][Sn]([F])([CH2]C)[CH2]C
inactive: dose: 0.37 mg/kg/injection, schedule: Q01DX009 (ip), vehicle: saline with Tween-80 90 % of control | dose: 0.38 mg/kg/injection, schedule: Q01DX009 (ip), vehicle: Klucel (hydroxypropylcellulose) (HPC) 101 % of control and 96 % of control | dose: 0.75 mg/kg/injection, schedule: Q01DX009 (ip), vehicle: Klucel (hydroxypropylcellulose) (HPC) 104 % of control and 108 % of control and 96 % of control | dose: 0.75 mg/kg/injection, schedule: Q01DX009 (ip), vehicle: saline with Tween-80 105 % of control | dose: 1.5 mg/kg/injection, schedule: Q01DX009 (ip), vehicle: Klucel (hydroxypropylcellulose) (HPC) 102 % of control and 103 % of control and 114 % of control | dose: 1.5 mg/kg/injection, schedule: Q01DX009 (ip), vehicle: saline with Tween-80 100 % of control | dose: 3.0 mg/kg/injection, schedule: Q01DX009 (ip), vehicle: Klucel (hydroxypropylcellulose) (HPC) 109 % of control and 116 % of control

O=C(CCN1CCCCC1)c1ccccc1
inactive: dose: 5.0 mg/kg/injection, schedule: Q01DX009 (ip), vehicle: saline 100 % of control | dose: 10.0 mg/kg/injection, schedule: Q01DX009 (ip), vehicle: saline 113 % of control | dose: 20.0 mg/kg/injection, schedule: Q01DX009 (ip), vehicle: saline 109 % of control | [3] 97 % of control

O=C1NNC=Nc2nc3c(cc21)CCCC3
inactive: dose: 60.0 mg/kg/injection, schedule: Q01DX005 (ip), vehicle: Klucel (hydroxypropylcellulose) (HPC) 98 % of control | dose: 120.0 mg/kg/injection, schedule: Q01DX005 (ip), vehicle: Klucel (hydroxypropylcellulose) (HPC) 92 % of control | dose: 240.0 mg/kg/injection, schedule: Q01DX005 (ip), vehicle: Klucel (hydroxypropylcellulose) (HPC) 94 % of control

CC(=O)OCC1OC(n2c(Br)nc3c(=O)[nH]c(N)nc32)C(OC(C)=O)C1OC(C)=O (stereo unspecified)
inactive: [4] 102 % of control | dose: 100.0 mg/kg/injection, schedule: Q01DX005 (ip), vehicle: saline with Tween-80 104 % of control | dose: 200.0 mg/kg/injection, schedule: Q01DX005 (ip), vehicle: saline with Tween-80 107 % of control

O=C1C=CC(=O)N1c1cccc2c1CCCC2
inactive: dose: 6.25 mg/kg/injection, schedule: Q01DX009 (ip), vehicle: saline with Tween-80 105 % of control | dose: 12.5 mg/kg/injection, schedule: Q01DX009 (ip), vehicle: saline with Tween-80 114 % of control

CC(=O)OC1CC2CCC1(C)C2(C)C (stereo unspecified)
inactive: [3] 109 % of control | [5] 105 % of control | [6] 104 % of control | [1] 100 % of control | [2] 100 % of control

O=C(O)C(Cc1ccc(O)cc1)NC(=O)C1CCCN1C(=O)OCc1ccccc1 (stereo not drawn) (Cbz-Pro-Tyr-OH; configuration not given here)
inactive: dose: 50.0 mg/kg/injection, schedule: Q01DX005 (ip), vehicle: saline 96 % of control | dose: 100.0 mg/kg/injection, schedule: Q01DX005 (ip), vehicle: saline 96 % of control | dose: 200.0 mg/kg/injection, schedule: Q01DX005 (ip), vehicle: saline 96 % of control

COc1cccc2c1SCC/C2=N\OCC(O)CNC1CCCCC1 (stereo unspecified)
inactive: dose: 100.0 mg/kg/injection, schedule: Q04DX002 (ip), vehicle: Klucel (hydroxypropylcellulose) (HPC) 94 % of control | dose: 200.0 mg/kg/injection, schedule: Q04DX002 (ip), vehicle: Klucel (hydroxypropylcellulose) (HPC) 94 % of control

COC(=O)CCC(=O)C(C#N)c1ccc(CC#N)cc1 (stereo unspecified)
inactive: dose: 12.5 mg/kg/injection, schedule: Q01DX005 (ip), vehicle: saline with Tween-80 96 % of control | dose: 25.0 mg/kg/injection, schedule: Q01DX005 (ip), vehicle: saline with Tween-80 98 % of control | [4] 102 % of control and 95 % of control

O=C(/C=C/C=C/c1ccccc1)c1ccco1
inactive: [3] 94 % of control | [6] 94 % of control | [7] 99 % of control

COc1ccc(CN2C(=O)C(Cl)=C(Cl)C2=O)c(OC)c1
inactive: [8] 100 % of control | [9] 94 % of control

O=C1C(C(=NCCCN2CCOCC2)c2ccccc2)=C(O)c2ccccc21
inactive: dose: 25.0 mg/kg/injection, schedule: Q04DX002 (ip), vehicle: saline with Tween-80 102 % of control | dose: 50.0 mg/kg/injection, schedule: Q04DX002 (ip), vehicle: saline with Tween-80 101 % of control | [10] 109 % of control

CC(CCl)OC(=O)Nc1cccc(C(F)(F)F)c1 (stereo unspecified)
inactive: [8] 106 % of control | [9] 102 % of control | [11] 107 % of control

Cc1nc2c([N+](=O)[O-])c(N(C)C)c([N+](=O)[O-])cc2[nH]1
inactive: dose: 25.0 mg/kg/injection, schedule: Q04DX003 (ip), vehicle: saline with Tween-80 96 % of control | [5] 87 % of control

OC1CC(OCc2ccccc2)CC1O (stereo unspecified)
inactive: [3] 103 % of control | [6] 97 % of control | [7] 103 % of control

O=NN(Cc1cccnc1)C(=O)NC1CCCCC1
inactive: dose: 25.0 mg/kg/injection, schedule: Q01DX001 (ip), vehicle: distilled water + Tween-80 109 % of control | dose: 50.0 mg/kg/injection, schedule: Q01DX001 (ip), vehicle: distilled water + Tween-80 98 % of control | dose: 100.0 mg/kg/injection, schedule: Q01DX001 (ip), vehicle: distilled water + Tween-80 100 % of control

Nc1ncnc2c1CCc1ccccc1-2
inactive: [10] 107 % of control | dose: 200.0 mg/kg/injection, schedule: Q04DX002 (ip), vehicle: saline with Tween-80 112 % of control

Cc1ccc(S(=O)(=O)OCCC(C)OS(=O)(=O)c2ccc(C)cc2)cc1 (stereo unspecified)
inactive: [8] 100 % of control | [9] 100 % of control | [11] 101 % of control

C=C1C(C)C2C(Cc3ccccc3)NC(=O)C23C(OC(C)=O)C=CC(C)(O)C(=O)C(C)C/C=C/C3C1O (stereo unspecified)
inactive: dose: 0.62 mg/kg/injection, schedule: Q01DX009 (ip), vehicle: Klucel (hydroxypropylcellulose) (HPC) 107 % of control | dose: 0.63 mg/kg/injection, schedule: Q01DX009 (ip), vehicle: Klucel (hydroxypropylcellulose) (HPC) 107 % of control | dose: 1.25 mg/kg/injection, schedule: Q01DX009 (ip), vehicle: Klucel (hydroxypropylcellulose) (HPC) 107 % of control and 97 % of control | dose: 2.5 mg/kg/injection, schedule: Q01DX009 (ip), vehicle: Klucel (hydroxypropylcellulose) (HPC) 107 % of control and 120 % of control | dose: 5.0 mg/kg/injection, schedule: Q01DX009 (ip), vehicle: Klucel (hydroxypropylcellulose) (HPC) 100 % of control and 103 % of control
